According to the NIST ThermoML archive (doi:10.1016/j.jct.2014.07.001):
Numbers after ± are expanded uncertainties.

Test: xn = mol fraction of the nth substance listed
Details: Drop volume

CO [methanol] + CCCC[n+]1cccc(C)c1.F[B-](F)(F)F
x2 = 0
Details | surface tension liquid-gas [mN/m]
293.15 K | 22.6 ± 0.26
303.15 K | 21.81 ± 0.25
313.15 K | 20.93 ± 0.24
323.15 K | 20.05 ± 0.23

CCCC[n+]1ccccc1.F[B-](F)(F)F [1-butylpyridinium tetrafluoroborate] + CCO
surface tension liquid-gas [mN/m]
Details | 303.15 K | 313.15 K | 323.15 K
x1 = 0.05 | 22.16 ± 0.26 | 21.51 ± 0.25 | 20.72 ± 0.24
x1 = 0.1021 | 22.72 ± 0.26 | 22.17 ± 0.26 | 21.41 ± 0.25
x1 = 0.1959 | 23.54 ± 0.27 | 23.25 ± 0.27 | 22.74 ± 0.26
x1 = 0.2902 | 24.72 ± 0.29 | 24.48 ± 0.28 | 24.26 ± 0.28
x1 = 0.3922 | 26.57 ± 0.31 | 26.27 ± 0.3 | 26.25 ± 0.3
x1 = 0.4914 | 28.89 ± 0.33 | 28.68 ± 0.33 | 28.54 ± 0.33
x1 = 0.5953 | 31.85 ± 0.37 | 31.63 ± 0.37 | 31.45 ± 0.36
x1 = 0.6898 | 35.04 ± 0.41 | 34.75 ± 0.4 | 34.53 ± 0.4
x1 = 0.7903 | 38.62 ± 0.45 | 38.26 ± 0.45 | 38.01 ± 0.44
x1 = 0.8879 | 42.28 ± 0.5 | 41.85 ± 0.49 | 41.5 ± 0.49
x1 = 0.94 | 44.15 ± 0.52 | 43.62 ± 0.52 | 43.24 ± 0.51
x1 = 1 | 46.3 ± 0.55 | 45.69 ± 0.54 | 45.11 ± 0.54

CCC[n+]1ccccc1.F[B-](F)(F)F [1-propylpyridinium tetrafluoroborate] + CO
surface tension liquid-gas [mN/m]
Details | 293.15 K | 303.15 K | 313.15 K | 323.15 K
x1 = 0.0478 | 23.84 ± 0.27 | 23.07 ± 0.27 | 22.2 ± 0.26 | 21.35 ± 0.25
x1 = 0.0964 | 25.01 ± 0.29 | 24.31 ± 0.28 | 23.48 ± 0.27 | 22.68 ± 0.26
x1 = 0.1993 | 27.35 ± 0.31 | 26.84 ± 0.31 | 26.18 ± 0.3 | 25.55 ± 0.29
x1 = 0.3036 | 29.78 ± 0.34 | 29.49 ± 0.33 | 28.99 ± 0.33 | 28.48 ± 0.32
x1 = 0.3934 | 32.15 ± 0.36 | 31.84 ± 0.36 | 31.46 ± 0.36 | 31.02 ± 0.35
x1 = 0.4987 | 35.23 ± 0.4 | 34.81 ± 0.4 | 34.46 ± 0.39 | 34.04 ± 0.39
x1 = 0.5926 | 38.18 ± 0.44 | 37.63 ± 0.43 | 37.21 ± 0.43 | 36.76 ± 0.42
x1 = 0.6946 | 41.44 ± 0.48 | 40.83 ± 0.47 | 40.29 ± 0.46 | 39.77 ± 0.46
x1 = 0.7836 | 44.31 ± 0.51 | 43.66 ± 0.51 | 43.04 ± 0.5 | 42.45 ± 0.49
x1 = 0.8822 | 47.5 ± 0.55 | 46.81 ± 0.55 | 46.15 ± 0.54 | 45.44 ± 0.53
x1 = 0.945 | 49.5 ± 0.58 | 48.78 ± 0.57 | 48.1 ± 0.57 | 47.36 ± 0.56
x1 = 1 | 51.29 ± 0.61 | 50.51 ± 0.6 | 49.79 ± 0.59 | 49.03 ± 0.58

CCO [ethanol] + CCCC[n+]1cccc(C)c1.F[B-](F)(F)F
x2 = 0
Details | surface tension liquid-gas [mN/m]
293.15 K | 22.28 ± 0.26
303.15 K | 21.49 ± 0.25
313.15 K | 20.66 ± 0.24
323.15 K | 19.84 ± 0.23

CCO [ethanol] + CCCC[n+]1ccccc1.F[B-](F)(F)F
x2 = 0
Details | surface tension liquid-gas [mN/m]
303.15 K | 21.49 ± 0.25
313.15 K | 20.66 ± 0.24
323.15 K | 19.84 ± 0.23

CCO [ethanol] + CCCC[n+]1ccc(C)cc1.F[B-](F)(F)F
x2 = 0
Details | surface tension liquid-gas [mN/m]
293.15 K | 22.28 ± 0.26
303.15 K | 21.49 ± 0.25
313.15 K | 20.66 ± 0.24
323.15 K | 19.84 ± 0.23

CCCC[n+]1cccc(C)c1.F[B-](F)(F)F [1-butyl-3-methylpyridinium tetrafluoroborate] + CCO
surface tension liquid-gas [mN/m]
Details | 293.15 K | 303.15 K | 313.15 K | 323.15 K
x1 = 0.0279 | 22.56 ± 0.26 | 21.82 ± 0.25 | 21.07 ± 0.25 | 20.3 ± 0.24
x1 = 0.0486 | 22.72 ± 0.26 | 22.04 ± 0.25 | 21.34 ± 0.25 | 20.64 ± 0.24
x1 = 0.0988 | 23.15 ± 0.27 | 22.56 ± 0.26 | 22.03 ± 0.26 | 21.43 ± 0.25
x1 = 0.2016 | 24.19 ± 0.28 | 23.8 ± 0.27 | 23.55 ± 0.27 | 23.17 ± 0.27
x1 = 0.2987 | 25.71 ± 0.3 | 25.43 ± 0.29 | 25.32 ± 0.29 | 25.07 ± 0.29
x1 = 0.3978 | 27.89 ± 0.32 | 27.63 ± 0.32 | 27.56 ± 0.32 | 27.34 ± 0.31
x1 = 0.5001 | 30.59 ± 0.35 | 30.28 ± 0.35 | 30.15 ± 0.35 | 29.91 ± 0.34
x1 = 0.5865 | 33.12 ± 0.38 | 32.73 ± 0.38 | 32.51 ± 0.37 | 32.21 ± 0.37
x1 = 0.6878 | 36.16 ± 0.42 | 35.68 ± 0.41 | 35.34 ± 0.41 | 34.96 ± 0.41
x1 = 0.7851 | 39.08 ± 0.45 | 38.51 ± 0.45 | 38.04 ± 0.44 | 37.59 ± 0.44
x1 = 0.887 | 42.04 ± 0.49 | 41.38 ± 0.49 | 40.81 ± 0.48 | 40.3 ± 0.47
x1 = 0.945 | 43.68 ± 0.52 | 42.99 ± 0.51 | 42.35 ± 0.5 | 41.81 ± 0.5
x1 = 1 | 45.21 ± 0.54 | 44.48 ± 0.53 | 43.8 ± 0.52 | 43.24 ± 0.52

CCCC[n+]1ccccc1.F[B-](F)(F)F [1-butylpyridinium tetrafluoroborate] + CO
surface tension liquid-gas [mN/m]
Details | 293.15 K | 303.15 K | 313.15 K | 323.15 K
x1 = 0.025 | 23.33 ± 0.27 | 22.59 ± 0.26 | 21.77 ± 0.25 | 20.96 ± 0.24
x1 = 0.0527 | 24.1 ± 0.28 | 23.41 ± 0.27 | 22.64 ± 0.26 | 21.9 ± 0.25
x1 = 0.0987 | 25.37 ± 0.29 | 24.73 ± 0.28 | 24.04 ± 0.28 | 23.38 ± 0.27
x1 = 0.1944 | 27.89 ± 0.32 | 27.37 ± 0.31 | 26.74 ± 0.3 | 26.23 ± 0.3
x1 = 0.2933 | 30.44 ± 0.34 | 29.92 ± 0.34 | 29.38 ± 0.33 | 28.96 ± 0.33
x1 = 0.3978 | 33.04 ± 0.37 | 32.55 ± 0.37 | 32.07 ± 0.36 | 31.7 ± 0.36
x1 = 0.4934 | 35.37 ± 0.4 | 34.9 ± 0.4 | 34.46 ± 0.39 | 34.11 ± 0.39
x1 = 0.5891 | 37.67 ± 0.43 | 37.21 ± 0.42 | 36.77 ± 0.42 | 36.46 ± 0.42
x1 = 0.6784 | 39.74 ± 0.46 | 39.26 ± 0.45 | 38.82 ± 0.45 | 38.5 ± 0.44
x1 = 0.7864 | 42.16 ± 0.49 | 41.64 ± 0.48 | 41.17 ± 0.48 | 40.81 ± 0.47
x1 = 0.8724 | 44.06 ± 0.52 | 43.5 ± 0.51 | 42.97 ± 0.5 | 42.54 ± 0.5
x1 = 0.93 | 45.33 ± 0.53 | 44.76 ± 0.53 | 44.17 ± 0.52 | 43.69 ± 0.52
x1 = 1 | 46.9 ± 0.56 | 46.3 ± 0.55 | 45.69 ± 0.54 | 45.11 ± 0.54

CO [methanol] + CCCC[n+]1ccc(C)cc1.F[B-](F)(F)F
x2 = 0
Details | surface tension liquid-gas [mN/m]
293.15 K | 22.6 ± 0.26
303.15 K | 21.81 ± 0.25
313.15 K | 20.93 ± 0.24
323.15 K | 20.05 ± 0.23
